By GI50 is commonly meant the concentration at which growth is held to half of that of the control. One may read the TGI as the concentration giving total growth inhibition.

Among the data in PubChem BioAssay (NCI) are GI50 and TGI values, retold here.

Each structure is given as a SMILES string.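 Five compound concentrations were applied to cells in 96-well plates for 48 hours; endpoints were derived by simple linear interpolation of the resulting dose-response curve. Abbreviation: GI50, concentration required for 50% inhibition of growth. TGI denotes the concentration required for complete inhibition of growth.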

Test systems include BT-549 breast; CAKI-1 renal; CCRF-CEM leukemia; COLO 205 colon; HCC-2998 colon; IGROV1 ovarian; OVCAR-8 ovarian; SK-MEL-28 melanoma; TK-10 renal; U251 CNS.
What all share (test): DTP human tumour cell line panel, 48 h

As for `O=C(N/N=C/c1ccc([N+](=O)[O-])o1)c1ccc(O)cc1`, the GI50 in the test on BT-549 breast is 10.7 µM; with CAKI-1 renal, 7.26 µM; in the test with CCRF-CEM leukemia, 0.804 µM; in the test with COLO 205 colon, 4.63 µM; in the test on HCC-2998 colon, 4.98 µM; in the test with IGROV1 ovarian it was 5.19 µM. Besides, the GI50 in the test on OVCAR-8 ovarian is 4.86 µM; in the test with SK-MEL-28 melanoma it was 14.7 µM; with TK-10 renal, greater than 100 µM; in the test with U251 CNS, 5.17 µM. Besides, the TGI was 28 µM in the test on BT-549 breast; greater than 100 µM in the test on CAKI-1 renal; 70.5 µM with CCRF-CEM leukemia; 16.1 µM with COLO 205 colon; greater than 100 µM with HCC-2998 colon; 23.1 µM in the test on IGROV1 ovarian. Further, the TGI with OVCAR-8 ovarian, in the test with SK-MEL-28 melanoma, with TK-10 renal and in the test on U251 CNS was greater than 100 µM each time.

`COc1ccc(/C=C(/c2ccccc2)[N+](=O)[O-])cc1`: the GI50 in the test on BT-549 breast is 1.42 µM; in the test on CAKI-1 renal, 1.55 µM; in the test with CCRF-CEM leukemia, 0.415 µM; in the test on COLO 205 colon it was 1.79 µM; with HCC-2998 colon, 1.75 µM; with IGROV1 ovarian it was 1.27 µM. Besides, the GI50 is 2.08 µM in the test with OVCAR-8 ovarian, 1.57 µM in the test with SK-MEL-28 melanoma, 1.98 µM in the test with TK-10 renal and 1.61 µM in the test on U251 CNS. The TGI in the test with BT-549 breast worked out at 2.88 µM; in the test on CAKI-1 renal, 3.28 µM; with CCRF-CEM leukemia, 3.32 µM; in the test on COLO 205 colon, 4.07 µM; in the test on HCC-2998 colon, 3.22 µM; in the test on IGROV1 ovarian, 2.67 µM. The concentration for total growth inhibition (TGI) in the test on OVCAR-8 ovarian turned out to be 6.3 µM; in the test with SK-MEL-28 melanoma, 3.19 µM; in the test on TK-10 renal, 3.93 µM; in the test with U251 CNS it was 3.21 µM.

Consider `COC(=O)c1cc(/C=C/c2ccc(S(N)(=O)=O)cc2)ccc1O`, for which the GI50 in the test with BT-549 breast was 16.3 µM; in the test with CAKI-1 renal, 28.6 µM; in the test on CCRF-CEM leukemia it was 41 µM; in the test on COLO 205 colon, 29.8 µM; in the test on HCC-2998 colon it was 18 µM; with IGROV1 ovarian it was 25.7 µM. The GI50 is 27.3 µM in the test with OVCAR-8 ovarian, 95.5 µM with SK-MEL-28 melanoma, 28.1 µM in the test with TK-10 renal and 18.8 µM in the test on U251 CNS. Further, the TGI was 56.2 µM in the test with BT-549 breast; greater than 100 µM in the test with CAKI-1 renal; greater than 100 µM in the test with CCRF-CEM leukemia; greater than 100 µM in the test on COLO 205 colon; 39.7 µM in the test with HCC-2998 colon; greater than 100 µM with IGROV1 ovarian. Further, the total growth inhibition concentration (TGI) in the test on OVCAR-8 ovarian, in the test with SK-MEL-28 melanoma, with TK-10 renal and in the test with U251 CNS was greater than 100 µM in each case.

With `CC1=C(C(=O)Nc2ccccc2)C(c2ccc(C3C(C(=O)Nc4ccccc4)=C(C)NC(C)=C3C(=O)Nc3ccccc3)cc2)C(C(=O)Nc2ccccc2)=C(C)N1`, the TGI was determined as 8.67 µM with BT-549 breast; 14.4 µM in the test with CAKI-1 renal; 12 µM in the test on CCRF-CEM leukemia; 10.6 µM in the test on COLO 205 colon; 5.74 µM with HCC-2998 colon; 6.94 µM with IGROV1 ovarian. In addition, the total growth inhibition concentration (TGI) with OVCAR-8 ovarian came out at 11.2 µM; with SK-MEL-28 melanoma, 3.64 µM; in the test on TK-10 renal, 18.3 µM; in the test on U251 CNS, 3 µM.

On to `O=C(CSC(c1ccccc1)c1ccccc1)N/N=C/c1ccco1`, for which the GI50 was 1.69 µM with BT-549 breast; 4.7 µM in the test on CAKI-1 renal; 2.48 µM with CCRF-CEM leukemia; 20.3 µM with COLO 205 colon; 1.62 µM in the test with HCC-2998 colon; 1.84 µM in the test with OVCAR-8 ovarian. The results for the GI50 in the test on SK-MEL-28 melanoma, with TK-10 renal and in the test with U251 CNS were 20.8 µM, 2.21 µM and 1.77 µM, respectively. Further, the concentration for total growth inhibition (TGI) was 2.78 µM in the test on BT-549 breast; 23.2 µM in the test on CAKI-1 renal; 22 µM in the test on CCRF-CEM leukemia; 52 µM in the test with COLO 205 colon; 3.58 µM in the test with HCC-2998 colon; 1.41 µM in the test with IGROV1 ovarian. For the same compound, the concentration for total growth inhibition (TGI) was found to be 6.67 µM with OVCAR-8 ovarian, 50.7 µM in the test with SK-MEL-28 melanoma, 7.62 µM in the test on TK-10 renal and 3.21 µM with U251 CNS.

For `CCCCCc1ccc(S(=O)(=O)Nc2cc(-c3csc(NC(C)=O)n3)ccc2N2CCN(C)CC2)cc1`, the GI50 was 4.98 µM with BT-549 breast; 4.84 µM in the test on CAKI-1 renal; 4.82 µM in the test on CCRF-CEM leukemia; 5.16 µM in the test on COLO 205 colon; 1.62 µM in the test with HCC-2998 colon; 4.67 µM in the test on IGROV1 ovarian. The GI50 was 5.82 µM in the test with OVCAR-8 ovarian, 3.46 µM in the test on SK-MEL-28 melanoma, 6.09 µM with TK-10 renal and 3.78 µM with U251 CNS. In addition, the total growth inhibition concentration (TGI) came to 10.1 µM with BT-549 breast; 9.48 µM in the test with CAKI-1 renal; 20.3 µM with CCRF-CEM leukemia; 11.8 µM in the test with COLO 205 colon; 5.47 µM with HCC-2998 colon; 9.46 µM in the test with IGROV1 ovarian. Moreover, the TGI in the test with OVCAR-8 ovarian turned out to be 13.1 µM; in the test on SK-MEL-28 melanoma it was 7.49 µM; in the test with TK-10 renal it was 11.7 µM; in the test with U251 CNS, 8.93 µM.

As to `CCN(CC)CCNC(=O)c1ccc(C)c(OCc2ccccc2)c1[N+](=O)[O-]`, the total growth inhibition concentration (TGI) in the test with BT-549 breast was greater than 50.6 µM; in the test on CAKI-1 renal, greater than 71.1 µM; in the test on CCRF-CEM leukemia, 81.4 µM; in the test on COLO 205 colon, 30.8 µM; in the test with HCC-2998 colon it was greater than 69.1 µM; in the test on IGROV1 ovarian, greater than 100 µM. Besides, the TGI in the test on OVCAR-8 ovarian was greater than 100 µM; with SK-MEL-28 melanoma, 34.2 µM; with TK-10 renal it was 98.1 µM; in the test on U251 CNS it was greater than 84.1 µM.

As to `COc1ccc2c(c1)C(C)Cc1c(ncnc1-n1cnc3cc(C)ccc31)N2C` (configuration not stated), the GI50 is 0.184 µM with BT-549 breast; 0.0604 µM in the test on CAKI-1 renal; 0.0324 µM in the test on CCRF-CEM leukemia; 0.176 µM in the test on COLO 205 colon; 0.329 µM with HCC-2998 colon; 0.254 µM with IGROV1 ovarian. Also, the figures for the 50% growth inhibitory concentration (GI50) with OVCAR-8 ovarian, in the test on SK-MEL-28 melanoma and in the test with U251 CNS were 0.244 µM, 0.575 µM and 0.148 µM, respectively. Also, the total growth inhibition concentration (TGI) in the test on BT-549 breast is 7.12 µM; with CAKI-1 renal it was 12.6 µM; in the test on CCRF-CEM leukemia, 14.5 µM; with COLO 205 colon, 0.388 µM; with HCC-2998 colon it was 13.3 µM; with IGROV1 ovarian it was 14.5 µM. Besides, the results for the concentration for total growth inhibition (TGI) in the test on OVCAR-8 ovarian, with SK-MEL-28 melanoma and with U251 CNS were 0.938 µM, 19.8 µM and 11.6 µM, respectively.
